The source made the active and inactive calls. The calls are words filed in the database; no cut-off is given here.

Data set [1] concerns the target T1, Metabotropic glutamate receptor 3 (Rattus norvegicus, UniProt P31422). Nature of the data set: Negative allosteric modulation of rat mGlu3R expressed in HEK cells harboring GIRK assessed as reduction in glutamate-induced thallium flux. Format: cell-based.
For data set [2], the target named is Metabotropic glutamate receptor 3 (Rattus norvegicus) (UniProt P31422). Nature of the data set: Negative allosteric modulation of rat mGlu3R expressed in HEK293 cells co-expressing Galpha15 assessed as decrease in glutamate-induced calcium mobilization relative to glutamate. Also noted: concentration or dose not given beside the values. Format: functional, cell-based.

Data set [3] can be described thus: Permeability coefficient, Kp in rat brain. Format: ADME, tissue-based.
Data set [4] relates to Mus musculus. As to the kind of experiment: Anti-anxiety activity in C57BL/6J mouse assessed as increase in total number of open arm entries at 10 mg/kg, ip treated for 15 mins by elevated zero maze assay. Format: functional, organism-based.
A short description of data set [5]: Plasma clearance in iv dosed rat. It counts as ADME, organism-based.
Data set [6] is described as follows: Fraction unbound in rat brain homogenate. It counts as ADME, tissue-based.
Data set [7] is described as follows: Volume of distribution at steady state in iv dosed rat. Format: ADME, organism-based. The settings on record: in vivo, read-out: Vdss.
Data set [8] has as its system Mus musculus. As to the kind of experiment: Anti-anxiety activity in C57BL/6J mouse assessed as reduction in number of marbles buried at 10 mg/kg, ip treated for 15 mins by marble burying assay. It counts as functional, organism-based.
The nature of data set [9]: Drug level in mouse plasma at 10 mg/kg, ip. Conditions: in vivo. Format: ADME, organism-based.
Data set [10] is described as follows: Half life in iv dosed rat. The settings on record: in vivo. Format: ADME, organism-based.
A short description of data set [11]: Unbound brain to plasma concentration ratio in rat. The settings on record: read-out: K(p,uu,brain). Format: ADME, cell-free.
Data set [12] can be described thus: Brain to plasma permeability coefficient, Kp in mouse at 10 mg/kg, ip. Format: ADME, organism-based.
In data set [13] the test system is Mus musculus. As to the kind of experiment: Antidepressant activity in ip dosed C57BL6/J mouse as […] in immobility time by tail suspension test. Format: functional. Conditions: read-out: MED.
For data set [14], the system named is Mus musculus. Nature of the data set: Antidepressant activity in ip dosed C57BL6/J mouse as total time of immobile by tail suspension test relative to control. Format: functional, organism-based.
Data set [15] can be described thus: MRT in iv dosed rat. It counts as ADME, organism-based. The settings on record: in vivo.
Data set [16] is described as follows: Drug level in mouse brain at 10 mg/kg, ip. It counts as ADME, organism-based. Conditions: in vivo, read-out: Ct.
Data set [17] deals with Mus musculus. Nature of the data set: Anti-anxiety activity in C57BL/6J mouse assessed as increase in total time spent in open arms at 10 mg/kg, ip treated for 15 mins by elevated zero maze assay. It counts as functional, organism-based.
The nature of data set [18]: Fraction unbound in rat plasma. It counts as ADME, cell-free.
Data set [19] deals with Mus musculus. Nature of the data set: Anti-anxiety activity in C57BL/6J mouse assessed as reduction in number of marbles buried at 15 mg/kg, ip treated for 15 mins by marble burying assay. Format: functional, organism-based.
For data set [20], the system named is Mus musculus. As to the kind of experiment: Anti-anxiety activity in C57BL/6J mouse assessed as increase in total time spent in open arms at 15 mg/kg, ip treated for 15 mins by elevated zero maze assay. It counts as functional, organism-based.
Data set [21] has as its system Mus musculus. As to the kind of experiment: Anti-anxiety activity in C57BL/6J mouse assessed as increase in total number of open arm entries at 15 mg/kg, ip treated for 15 mins by elevated zero maze assay. It counts as functional, organism-based.
Data set [22] addresses T1, Metabotropic glutamate receptor 3. As to the kind of experiment: Negative allosteric modulation of rat mGlu3R expressed in HEK cells harboring GIRK assessed as reduction in glutamate-induced thallium flux preincubated for 5 mins followed by glutamate addition and measured after 2 mins by BTC-AM-dye based fluorescence assay. Format: cell-based.

T1 sequence (P31422 whole entry): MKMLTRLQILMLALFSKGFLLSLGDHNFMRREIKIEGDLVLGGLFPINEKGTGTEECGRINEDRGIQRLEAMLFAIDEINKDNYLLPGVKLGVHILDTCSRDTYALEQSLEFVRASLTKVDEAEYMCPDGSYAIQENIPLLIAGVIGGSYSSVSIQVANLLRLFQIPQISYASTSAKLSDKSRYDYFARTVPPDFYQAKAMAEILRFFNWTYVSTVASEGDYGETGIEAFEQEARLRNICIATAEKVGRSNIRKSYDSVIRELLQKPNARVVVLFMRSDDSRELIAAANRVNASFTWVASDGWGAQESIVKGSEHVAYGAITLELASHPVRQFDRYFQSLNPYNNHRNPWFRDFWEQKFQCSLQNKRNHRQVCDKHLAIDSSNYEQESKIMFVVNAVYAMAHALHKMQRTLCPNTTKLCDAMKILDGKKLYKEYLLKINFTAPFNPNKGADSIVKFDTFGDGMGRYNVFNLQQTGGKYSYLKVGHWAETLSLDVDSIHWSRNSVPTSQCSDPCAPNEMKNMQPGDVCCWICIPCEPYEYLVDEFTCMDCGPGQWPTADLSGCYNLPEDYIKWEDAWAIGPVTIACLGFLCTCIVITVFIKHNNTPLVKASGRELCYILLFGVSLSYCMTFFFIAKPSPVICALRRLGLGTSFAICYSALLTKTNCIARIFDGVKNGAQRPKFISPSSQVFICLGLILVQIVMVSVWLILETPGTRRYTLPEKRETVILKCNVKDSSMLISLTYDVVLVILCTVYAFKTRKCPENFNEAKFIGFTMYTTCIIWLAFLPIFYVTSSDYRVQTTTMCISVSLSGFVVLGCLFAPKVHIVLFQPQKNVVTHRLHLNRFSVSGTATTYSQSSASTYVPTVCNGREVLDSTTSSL
Metabotropic glutamate receptor 3 (Rattus norvegicus), sequence (P31422 23-879 limits assumed): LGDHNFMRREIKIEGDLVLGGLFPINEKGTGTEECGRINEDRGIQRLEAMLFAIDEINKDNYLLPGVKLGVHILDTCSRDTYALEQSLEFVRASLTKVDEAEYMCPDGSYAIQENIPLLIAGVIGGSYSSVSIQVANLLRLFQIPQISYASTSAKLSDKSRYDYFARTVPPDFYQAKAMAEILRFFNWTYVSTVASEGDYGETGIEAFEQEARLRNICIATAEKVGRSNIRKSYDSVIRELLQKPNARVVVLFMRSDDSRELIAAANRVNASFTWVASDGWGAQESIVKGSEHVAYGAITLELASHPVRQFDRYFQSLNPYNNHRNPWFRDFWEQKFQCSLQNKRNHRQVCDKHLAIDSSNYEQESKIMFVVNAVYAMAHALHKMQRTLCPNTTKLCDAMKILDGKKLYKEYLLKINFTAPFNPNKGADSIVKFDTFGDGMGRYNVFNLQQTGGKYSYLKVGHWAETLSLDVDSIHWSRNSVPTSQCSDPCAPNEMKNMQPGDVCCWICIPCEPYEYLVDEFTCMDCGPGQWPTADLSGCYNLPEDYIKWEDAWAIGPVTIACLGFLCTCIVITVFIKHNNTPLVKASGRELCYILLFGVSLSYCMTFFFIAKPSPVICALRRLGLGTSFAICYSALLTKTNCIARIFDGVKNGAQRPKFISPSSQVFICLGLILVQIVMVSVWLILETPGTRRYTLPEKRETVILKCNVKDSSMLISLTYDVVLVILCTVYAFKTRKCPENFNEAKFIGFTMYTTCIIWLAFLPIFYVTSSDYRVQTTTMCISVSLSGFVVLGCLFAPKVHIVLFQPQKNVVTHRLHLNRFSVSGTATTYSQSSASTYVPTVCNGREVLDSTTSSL

On to `COc1ccc(-n2ccc(O[C@H](C)COc3ccccc3)cc2=O)cc1`, for which the IC50 (commonly the midpoint of a concentration-inhibition curve) in [1] was more than 10 µM. For the same compound, the Activity in [2] stood at 19%.

As for `Cc1cccc(-n2ccc(OCC(C)COc3ccccc3)cc2=O)c1` (racemic) [listing 1 of 2 here], in data set [1], the IC50 was 3.2 µM.

As to `O=c1cc(OCC2CCc3ccccc3O2)ccn1-c1ccc(F)cc1` (racemic), in data set [1], the IC50 amounted to 7.7 µM. Further, the Activity in data set [2] is -1.7%.

With `Cc1cccc(-n2ccc(OC[C@@H](C)Oc3ccccc3)cc2=O)c1`, in data set [1], the IC50 was more than 10 µM. In addition, the Activity in data set [2] is 4.7%.

Take `Cc1cccc(-n2ccc(OCC(C)COc3ccccc3)cc2=O)c1` (racemic) [listing 2 of 2 here]: the Activity in data set [2] was 4.6%.

On to `Cc1cccc(-n2ccc(OCC(Oc3ccccc3)c3ccccc3)cc2=O)c1` (configuration not stated), for which the IC50 in data set [1] is more than 10 µM. Also, the Activity in data set [2] came out at 14%.

`Cc1cccc(-n2ccc(OC[C@H](C)Oc3ccccc3)cc2=O)c1`: the IC50 in data set [1] worked out at 1.3 µM. Further, the Activity in data set [2] is -7.4%.

On to `CC(COc1ccccc1)COc1ccn(-c2cccc(Cl)c2)c(=O)c1` (single isomer, unassigned), for which the IC50 in data set [1] came to 1.4 µM. The Activity in data set [2] was -4.4%.

For the compound `Cc1cccc(-n2ccc(OCC(C)COc3ccccc3)cc2=O)c1` (single isomer, unassigned; form 1) [listing 1 of 2 here], in data set [1], the IC50 is 3.1 µM.

Turning to `Cc1cccc(-n2ccc(O[C@H](C)COc3ccccc3)cc2=O)c1`, the Kp came out at 1.6 in data set [3] and 1.42 in data set [12]. The outcome with Mus musculus [4], in the data set with Mus musculus [8] and in the data set on Mus musculus [17] was Active. In [5], the clearance (usually the rate of elimination divided by the concentration) is 31 mL/min/kg. In addition, the fraction unbound (commonly the share of the substance not bound to proteins or other matrix) in data set [6] turned out to be 0.018; in data set [18], 0.055. In addition, the Vd in data set [7] was 3.82 L/kg. The concentration in data set [9] was 272 nM; in [16], 386 nM. Besides, in [10], the half-life (commonly the time in which the quantity being followed falls by half) came out at 2 h. The Kp uu in [11] amounted to 0.53. Besides, the IC50 in [1] was found to be 1.5 µM. Also, in the data set on Mus musculus [13], the minimal effective dose is 10 mg/kg. Besides, the outcome with Mus musculus [14] was inactive. For the same compound, in [15], the MRT (usually a mean duration of stay, worked out from the concentration-time curve) is 2.05 h. In [2], the Activity was -4.3%.

As to `O=c1cc(OCC(Oc2ccccc2)c2ccccc2)ccn1-c1ccc(F)cc1` (configuration not stated), the IC50 in [1] is more than 10 µM. Moreover, the Activity in data set [2] was 4.9%.

Take `CC(COc1ccccc1)COc1ccn(-c2ccc(Cl)cc2)c(=O)c1` (single isomer, unassigned): the Kp in data set [3] came to 1.6. The fraction unbound in data set [6] was determined as 0.008; in [18] it was 0.01. Besides, the IC50 in data set [1] stood at 0.92 µM. Further, the Activity in data set [2] is 36%.

Take `Cc1cccc(-n2ccc(OCC(C)COc3ccccc3)cc2=O)c1` (single isomer, unassigned; form 1) [listing 2 of 2 here]: the Activity in data set [2] is -6.6%.

`C[C@H](COc1ccn(-c2ccc(F)cc2)c(=O)c1)Oc1ccccc1`: in [1], the IC50 is more than 10 µM. In data set [2], the Activity is 1.3%.

As to `C[C@@H](COc1ccccc1)Oc1ccn(-c2ccc(F)cc2)c(=O)c1`, the IC50 in data set [1] was more than 10 µM. In addition, the Activity in data set [2] was 32%.

Regarding `Cc1cccc(-n2ccc(OCC3CCc4ccccc4O3)cc2=O)c1` (racemic), in data set [1], the IC50 was determined as 4.1 µM. For the same compound, the Activity in data set [2] is -0.77%.

With `CN(C)CCCC1(c2ccc(F)cc2)OCc2cc(C#N)ccc21` (configuration not stated), the result in the data set with Mus musculus [19], with Mus musculus [20] and with Mus musculus [21] was Active. Further, the result in the data set on Mus musculus [14] was inactive.

Consider `C[C@H](COc1ccccc1)Oc1ccn(-c2ccc(F)cc2)c(=O)c1`, for which the IC50 in data set [1] came to 3 µM. Also, in data set [2], the Activity was -2.2%.

As to `C[C@@H](COc1ccn(-c2ccc(F)cc2)c(=O)c1)Oc1ccccc1`, the clearance in data set [5] worked out at 76.3 mL/min/kg. In addition, the Vd in data set [7] was 2.05 L/kg. The half-life in data set [10] was 0.39 h. For the same compound, in data set [22], the IC50 lay within 1.28 to 1.3 µM. In addition, in the data set with Mus musculus [13], the minimal effective dose was 10 mg/kg. The same compound showed an MRT in data set [15] of 0.448 h. The Activity in data set [2] is -5.7%.

Turning to `Cc1cccc(-n2ccc(OCC(C)COc3ccccc3)cc2=O)c1` (single isomer, unassigned; form 2) [listing 1 of 2 here], the Activity in data set [2] was -7.3%.

For `C[C@H](COc1ccccc1)Oc1ccn(-c2cccc(Cl)c2)c(=O)c1`, the Kp in data set [3] came to 1.42. In addition, the fraction unbound in [6] is 0.014; in data set [18], 0.045. The Kp uu in data set [11] was 0.44. In addition, the IC50 in data set [1] amounted to 0.52 µM. In addition, the Activity in data set [2] is -11%.

`CC(COc1ccccc1)COc1ccn(-c2ccc(F)cc2)c(=O)c1` (racemic): the IC50 in data set [1] was found to be 3.2 µM. The Activity in data set [2] turned out to be 6.6%.

As for `Cc1cccc(-n2ccc(OCC(C)COc3ccccc3)cc2=O)c1` (single isomer, unassigned; form 2) [listing 2 of 2 here], the IC50 in [1] was found to be 1.3 µM.

As for `C[C@H](COc1ccccc1)Oc1ccn(-c2ccc(Cl)cc2)c(=O)c1`, the IC50 in [1] worked out at 2.7 µM. Besides, in data set [2], the Activity is -7.9%.

The values above are taken from ChEMBL document CHEMBL4346754, “Further exploration of an N-aryl phenoxyethoxy pyridinone-based series of mGlu3 NAMs: Challenging SAR, enantiospecific activity and in vivo efficacy” (Bioorg Med Chem Lett, 2019).
